Test results taken from ChEMBL document CHEMBL1123951, “Triazolines. 14. 1,2,3-Triazolines and triazoles, a new class of anticonvulsants. Drug design and structure-activity relationships” (J Med Chem, 1988).

Tests used:
Mus musculus [1] = species: Mus musculus; assay: Anticonvulsant activity in mice, measured by maximal electroshock seizure (MES) test.; type: functional
Mus musculus [2] = assay: Anticonvulsant activity in mice, measured by subcutaneous pentylenetetrazole seizure (scMet) test.; type: functional; conditions: sc
Mus musculus [3] = species: Mus musculus; assay: Neurological deficit in mouse measured by rotarod test; type: functional
[4] = Protective index (PI), anticonvulsant activity, ratio of TD50/ED50 value in maximal electroconvulsive shock seizure (MES) test; type: ADME, organism-based; conditions: mouse, in vivo
[5] = Protective index (PI),anticonvulsant activity, ratio of TD50/ED50 value in scMet test; type: ADME, organism-based; conditions: mouse, in vivo
[6] = Protective index (Pi) was measured as the ratio of TD50/ED50 value in MES test; type: ADME

Structure (SMILES) | ED50 (Mus musculus [1]) | ED50 (Mus musculus [2]) | TD50 (Mus musculus [3]) | selectivity ratio [4] | selectivity ratio [5] | selectivity ratio [6]
FC(F)(F)c1ccc(N2N=NCC2c2ccncc2)cc1 (configuration not stated) | 689 mg/kg | 421 mg/kg | > 2000 mg/kg | > 2.9 | > 4.8 | –
c1ccc(-n2nncc2-c2ccncc2)cc1 | 78.8 mg/kg | 73.7 mg/kg | 157 mg/kg | 2 | 2.1 | –
Clc1cccc(-n2nncc2-c2ccncc2)c1 | 38 mg/kg | 29.2 mg/kg | 68.7 mg/kg | 1.8 | 2.4 | –
Fc1ccc(-n2nncc2-c2ccccn2)cc1F | 62.5 mg/kg | 123 mg/kg | 123 mg/kg | 3.1 | 1.6 | –
Clc1ccc(-n2nncc2-c2ccccn2)cc1 | 95.2 mg/kg | 50.4 mg/kg | 234 mg/kg | 2.5 | 4.6 | –
c1ccc(N2N=NCC2c2ccncc2)cc1 (configuration not stated) | 165 mg/kg | 107 mg/kg | 590 mg/kg | 3.6 | 5.6 | –
Fc1ccc(-n2nncc2-c2ccncc2)cc1 | 91.6 mg/kg | 119 mg/kg | 181 mg/kg | 2 | 1.5 | –
Clc1ccc(N2N=NCC2c2ccncc2)cc1 (configuration not stated) | 257 mg/kg | – | 1130 mg/kg | 4.4 | 26 | –
FC(F)(F)c1cccc(N2N=NCC2c2ccncc2)c1 (configuration not stated) | 52.1 mg/kg | 51 mg/kg | 137 mg/kg | 2.63 | 2.69 | –
FC(F)(F)c1cccc(-n2nncc2-c2ccncc2)c1 | 68.2 mg/kg | 44.7 mg/kg | 68 mg/kg | 0.99 | 1.52 | –
Clc1ccc(-n2nncc2-c2cccnc2)cc1 | 65.8 mg/kg | 26.9 mg/kg | 245 mg/kg | 3.7 | 9.1 | –
c1ccc(-n2nncc2-c2cccnc2)cc1 | 76.4 mg/kg | 39.7 mg/kg | 133 mg/kg | 1.7 | 3.3 | –
Clc1ccc(-n2nncc2-c2ccccc2)cc1 | 233 mg/kg | 95.2 mg/kg | 466 mg/kg | 2 | 4.9 | –
CCCC(CCC)C(=O)O [VALPROIC ACID] | 272 mg/kg | 149 mg/kg | – | – | – | –
Brc1ccc(-n2nncc2-c2cccnc2)cc1 | 87.2 mg/kg | 40.6 mg/kg | 496 mg/kg | 5.7 | 12.2 | –
CCC1(C)CC(=O)NC1=O (configuration not stated) [ETHOSUXIMIDE] | – | 130 mg/kg | 441 mg/kg | – | – | –
CCC1(c2ccccc2)C(=O)NC(=O)NC1=O [PHENOBARBITAL] | – | – | 69 mg/kg | – | – | –
FC(F)(F)c1ccc(-n2nncc2-c2cccnc2)cc1 | 92.3 mg/kg | 90.5 mg/kg | 379 mg/kg | 4.1 | 4.2 | –
c1ccc(-n2nncc2-c2ccccn2)cc1 | 41.1 mg/kg | 25.6 mg/kg | 87.9 mg/kg | 2.1 | 3.4 | –
Fc1ccc(-n2nncc2-c2cccnc2)cc1 | 74.6 mg/kg | 47.9 mg/kg | 168 mg/kg | 2.5 | 3.5 | –
COc1ccc(-n2nncc2-c2ccncc2)cc1 | 311 mg/kg | – | 545 mg/kg | – | – | 1.75
Brc1ccc(-n2nncc2-c2ccccn2)cc1 | 68 mg/kg | 88.6 mg/kg | 265 mg/kg | 3.9 | 3 | –
Fc1ccc(N2N=NCC2c2ccncc2)cc1 (configuration not stated) | 239 mg/kg | 203 mg/kg | 586 mg/kg | 2.5 | 2.9 | –
